Data on 24 molecules can be found in publication PMC8878717, “The Oxime Ethers with Heterocyclic, Alicyclic and Aromatic Moiety as Potential Anti-Cancer Agents” (Molecules, 2022).

Series [1] concerns HeLa cells. Kind of series: MTT cytotoxicity test on HeLa cells. Type of series: cell-based, human. The conditions noted are these: for cytotoxicity / cell viability of HeLa cells at low concentration: 1–10 μg/mL (1 and 10 μg/mL). As for the experimental part:
Cytotoxic properties of all compounds were determined by 3-(4,5-dimethylthiazol-2-yl)-2,5-diphenyltetrazolium bromide (MTT) test reflecting cell viability. Cytotoxicity screening of all 27 compounds—2-acetylbenzofuran oxime (6) and its oxime ethers (1–5), as well as: 2-acetylthiophene (7–17), cyclohexanone (18–20), acetophenone (21–23), thiazole (24–25), benzothiazole (26–27) oxime ethers—was performed in vitro on human cervical adenocarcinoma (HeLa) cells as the representatives of cancerous cells.
(§1) 2-Acetylbenzofuran, 2-acetylbenzothiophene, 2-acetylthiophene, 2-acetylthiazole, cyclohexanone and acetophenone derivatives were used for in vitro cytotoxicity assays with cervical adenocarcinoma (HeLa), human dermal fibroblasts (HDF), lung epithelial carcinoma (A549), and intestinal epithelial carcinoma (Caco-2) cell lines. A549, Caco-2, and HeLa cells were obtained from Sigma-Aldrich (Germany), and HDF from Biokom (Poland). All cell lines were cultured according to the manufacturer’s protocol under sterile conditions in the presence of 4.9% CO2 at 37 °C. A549 cells were grown in F-12 medium containing 10% fetal bovine serum (FBS) and 1% penicillin/streptomycin. HDF cells were grown in DMEM (low glucose, with 2 mM glutamine) medium containing 10% fetal bovine serum (FBS) and 1% penicillin/streptomycin. Caco-2 cells were grown in EMEM medium containing 10% fetal bovine serum (FBS), 1% non-essential amino acids (NEAA) and 1% penicillin/streptomycin. HeLa cells were grown in DMEM (low glucose, with 2 mM glutamine) medium containing 10% fetal bovine serum (FBS) and 1% gentamycin. After thawing, cells were cultured until they reached sub-confluent state. The cells were then detached using 0.25% trypsin solution and seeded into 24-well or 96-well plates (3 × 10^3 cells per well) for further experiments. After 24 h growth, the tested compounds were added to the cell cultures in concentrations of 1, 10, 50, 100 and 250 μg mL^−1, respectively, and incubated for the next 24 h or 72 h. The MTT test, based on the ability to reduce 3-(4,5-dimethylthiazol 2-yl)-2,5-diphenyltetrazolium bromide (MTT) by mitochondrial dehydrogenases, was performed in triplicate to assess cell metabolic activity and viability. The plates were then read spectrophotometrically at a wavelength of 570 nm. The dose-dependence curves were charted directly on x-/y-axes, with the drug dosages on the x-axis and the cell viability (percentage of viable cells) on the y-axis.
Background: Formazan colour is commonly taken as a measure of viable cells.

Series [2] deals with Caco-2 cells. The series is described as follows: MTT cytotoxicity test on Caco-2 cells. Type of series: cell-based, human. The conditions noted are these: Homo sapiens. The protocol:
(§2) Therefore, compounds showing the highest cytotoxicity (8, 9, 18, 22, 24–27) were further tested on normal human dermal fibroblasts (HDF), A549, Caco-2, and HeLa cells to compare their activity after 24 h and 72 h culture (Figure 5 and Figure 6).
as §1

Series [3] has as its system human dermal fibroblasts (HDF). The series is described as follows: MTT cytotoxicity test on HDF cells. The conditions noted are these: Homo sapiens, Fibroblast, HDF. Format: cell-based. As for the experimental part: as §2, §1
In series [4] the test system is A549 cells. The series is described as follows: MTT cytotoxicity test on A549 cells. Format: cell-based. As to conditions: Homo sapiens. As for the experimental part: as §2, §1
A short description of series [5]: MTT cytotoxicity test on HDF cells. As to conditions: human, human dermal fibroblasts (HDF); 100 μg/mL, 24 h exposure. Type of series: cell-based, human. As for the experimental part:
as §2, §1

Setting [6] is: Homo sapiens, HeLa, 24 h, HeLa, 24 h culture, MTT, read-out: EC50 for HeLa Cells.
The mark [7] stands for this setting: Caco-2, 24 h, MTT, read-out: EC50 Value Caco-2 24 h.
[8] abbreviates: Caco-2, 72 h, MTT, read-out: EC50 Value Caco-2 72 h.
The mark [9] stands for this setting: Homo sapiens, HeLa, 72 h, HeLa, 72 h, MTT, read-out: EC50 Value HeLa 72 h.
Where [10] appears, read: 24 h, MTT, read-out: EC50 Value HDF 24 h.
Setting [11] is: 72 h, MTT, read-out: EC50 Value HDF 72 h.
Where [12] appears, read: A549, 24 h, MTT, read-out: EC50 Value A549 24 h.
Setting [13] is: A549, 72 h, MTT, read-out: EC50 Value A549 72 h.

“And” between values parts separate entries of the source, which are not always exact repeats. Equal entries are not always repeated. Where two headings read alike, the source gives them in different places. Bounds are passed on as bounds.

As usually defined, the EC50 is the midpoint of the concentration-response curve. In the case of `C/C(=N\OCCN)c1cccs1` [Compound 13, (E)-1-(thiophen-2-yl)ethanone O-2-aminoethyl oxime], the EC50 in series [1] (setting [6]) is > 250 µg/mL and > 1.36 mM.

Consider `COc1ccc(CO/N=C(\C)c2nccs2)cc1` [Compound 24, (E)-1-(thiazol-2-yl)ethanone O-4-methoxybenzyl oxime], for which the EC50 in series [2] (setting [7]) was > 250 µg/mL and > 950 µM; in series [2] (setting [8]) it was 69.1 µg/mL and 260 µM; in series [1] (setting [6]), 110 µg/mL and 420 µM; in series [1] (setting [9]), 8.7 µg/mL and 30 µM; in series [3] (setting [10]), 35.3 µg/mL and 130 µM; in series [3] (setting [11]) it was 30.6 µg/mL and 120 µM. For the same molecule, the EC50 in series [4] (setting [12]) is > 250 µg/mL and > 950 µM; in series [4] (setting [13]), 35.7 µg/mL and 140 µM.

In the case of `CC(=NOCC(=O)O)c1cccs1` [Compound 17], the “cytotoxicity / cell viability of HeLa cells at low concentration” value (from here on “cytotoxicity / cell viability”) in series [1] (MTT) is reported as “increased cell viability”. Also, the EC50 in series [1] (setting [6]) was > 250 µg/mL and > 1.25 mM.

Regarding `CC(=NO)c1cc2ccccc2o1` [Compound 6, 2-acetylbenzofuran oxime], the EC50 in series [1] (setting [6]) is > 250 µg/mL and > 1.43 mM.

With `C/C(=N\OCCCN)c1cccs1` [Compound 15, (E)-1-(thiophen-2-yl)ethanone O-3-aminopropyl oxime], in series [1] (setting [6]), the EC50 was > 250 µg/mL and > 1.1 mM.

Take `CN(C)CCON=C1CCCCC1` [Compound 19]: the EC50 in series [1] (setting [6]) was > 250 µg/mL and > 1.36 mM.

`CC(=NOCc1ccc(Br)cc1)c1cccs1` [Compound 8]: the EC50 is 230 µg/mL and 740 µM in series [2] (setting [7]); 118 µg/mL and 380 µM in series [2] (setting [8]); 610 µM in series [1] (setting [6]); 40 µg/mL and 130 µM in series [1] (setting [9]); 127 µg/mL and 410 µM in series [3] (setting [10]); 118 µg/mL and 380 µM in series [3] (setting [11]). The EC50 in series [4] (setting [12]) is 194 µg/mL and 620 µM; in series [4] (setting [13]), 228 µg/mL and 740 µM.

Consider `CC(=NOCc1ccc([N+](=O)[O-])cc1)c1cc2ccccc2o1` [Compound 4], for which the EC50 in series [1] (setting [6]) was > 250 µg/mL and > 810 µM.

As for `CCN(CC)CCO/N=C(\C)c1cccs1` [Compound 14, (E)-1-(thiophen-2-yl)ethanone O-2-(diethylamino)ethyl oxime], in series [1] (setting [6]), the EC50 is > 250 µg/mL and > 1.04 mM.

As to `CC(=NOCCN(C)C)c1cccs1` [Compound 11], the EC50 in series [1] (setting [6]) was > 250 µg/mL and > 1.18 mM.

For the molecule `COc1ccc([N+](=O)[O-])c(CON=C(C)c2cccs2)c1` [Compound 10], the EC50 in series [1] (setting [6]) was > 250 µg/mL and > 820 µM.

In the case of `CC(=NOCc1ccc(C(F)(F)F)cc1)c1cc2ccccc2o1` [Compound 2], the EC50 in series [1] (setting [6]) is > 250 µg/mL and > 750 µM.

The term viability denotes a read-out of living cells in per cent, often relative to untreated cells. A low value points to a greater loss of cells. Consider `O=C(O)CON=C1CCCCC1` [Compound 18, 2-(cyclohexylideneaminoxy)acetic acid], for which the EC50 in series [2] (setting [7]) is 44.4 µg/mL and 260 µM; in series [2] (setting [8]), 17.5 µg/mL and 100 µM; in series [2] (Caco-2, 72 h, read-out: EC50 Caco-2) it was 90 to 100 µM; in series [1] (setting [6]), 32.3 µg/mL and 190 µM; in series [1] (setting [9]), 4.9 µg/mL and 30 µM; in series [3] (setting [10]) it was 43.7 µg/mL and 260 µM. In addition, the EC50 is 14.7 µg/mL and 90 µM in series [3] (setting [11]); 90 to 100 µM in series [3] (72 h culture, read-out: EC50 HDF); 47.8 µg/mL and 280 µM in series [4] (setting [12]); 17.9 µg/mL and 100 µM in series [4] (setting [13]); 90 to 100 µM in series [4] (A549, 72 h, read-out: EC50 A549). Moreover, the viability at 100 µg/mL is approximately 20% in series [2] (Caco-2, 100 μg/mL, 24 h exposure); approximately 20% in series [1] (Homo sapiens, HeLa, 100 μg/mL, 24 h exposure); approximately 20% in series [4] (A549, 100 μg/mL, 24 h exposure). In addition, the “viability of HeLa cells (of control)” value in series [1] (100–250 μg/mL, MTT) is on record as “below 20%”. In addition, in series [5], the viability at 24 h, 100 μg/mL is approximately 20%.

In the case of `CC(=NOCc1ccc(Cl)cc1Cl)c1cccs1` [Compound 7], the “cytotoxicity / cell viability” value in series [1] (MTT) is recorded as “increased cell viability”. Moreover, the EC50 in series [1] (setting [6]) is > 250 µg/mL and > 830 µM.

`CC(=NOCCCN(C)C)c1cccs1` [Compound 16]: the “cytotoxicity / cell viability” value in series [1] (MTT) was “increased cell viability”. In addition, the EC50 in series [1] (setting [6]) is > 250 µg/mL and > 1.1 mM.

Turning to `C1CCC(=NOCCN2CCOCC2)CC1` [Compound 20], in series [1] (setting [6]), the 50% effective concentration (EC50) was > 250 µg/mL and > 1.1 mM.

`CC(=NOCc1c(F)cccc1F)c1cc2ccccc2o1` [Compound 5]: the EC50 in series [1] (setting [6]) was > 250 µg/mL and > 830 µM.

One may read the melting point as the temperature of the solid-liquid transition. In turn, `CC(=NOCc1ccc(Cl)cc1Cl)c1cc2ccccc2s1` [Compound 26, (E)-1-(benzothiophene-2-yl)ethanone O-2,4-dichlorobenzyl oxime] came in with a melting point of 113 to 117 °C. Further, the EC50 in series [2] (setting [7]) was > 250 µg/mL and > 710 µM. For the same molecule, the EC50 in series [2] (setting [8]) is 50.1 µg/mL and 140 µM. Also, the EC50 in series [1] (setting [6]) is 121 µg/mL and 350 µM. Moreover, in series [1] (setting [9]), the half-maximal effective concentration (EC50) was 8.18 µg/mL and 20 µM. The EC50 in series [3] (setting [10]) was 135 µg/mL and 380 µM. Also, in series [3] (setting [11]), the EC50 was 25.7 µg/mL and 70 µM. Besides, the EC50 in series [4] (setting [12]) is 199 µg/mL and 570 µM. In addition, the EC50 in series [4] (setting [13]) is 177 µg/mL and 510 µM.

On to `CC(=NOCCN1CCOCC1)c1cccs1` [Compound 12], for which, in series [1] (MTT), the “cytotoxicity / cell viability” value is reported as “increased cell viability”. In addition, in series [1] (setting [6]), the EC50 was > 250 µg/mL and > 980 µM.

`C/C(=N\OCc1ccc(Br)cc1)c1nccs1` [Compound 25, (E)-1-(thiazol-2-yl)ethanone O-4-bromobenzyl oxime] came in with a melting point of 67 to 70 °C. Further, the EC50 in series [2] (setting [7]) was 70.8 µg/mL and 230 µM. Moreover, the EC50 in series [2] (setting [8]) was 50.5 µg/mL and 160 µM. Also, the EC50 in series [1] (setting [6]) was 130 µg/mL and 420 µM. The EC50 in series [1] (setting [9]) was 47.3 µg/mL and 150 µM. For the same molecule, the EC50 in series [3] (setting [10]) was 37.9 µg/mL and 120 µM. Moreover, the EC50 in series [3] (setting [11]) is 25.7 µg/mL and 80 µM. Also, in series [4] (setting [12]), the EC50 is > 250 µg/mL and > 800 µM. The EC50 in series [4] (setting [13]) is 79.9 µg/mL and 260 µM.

On to `CC(=NOCc1ccc(Br)cc1)c1cc2ccccc2o1` [Compound 3], for which the EC50 in series [1] (setting [6]) is > 250 µg/mL and > 730 µM.

With `CC(=NOCc1ccc([N+](=O)[O-])cc1)c1cccs1` [Compound 9], the EC50 in series [2] (setting [7]) is 78 µg/mL and 280 µM; in series [2] (setting [8]), 105 µg/mL and 380 µM; in series [1] (setting [6]), 460 µM; in series [1] (setting [9]), 6.9 µg/mL and 20 µM; in series [3] (setting [10]) it was 172 µg/mL and 620 µM; in series [3] (setting [11]) it was 44.7 µg/mL and 160 µM. The concentration giving a half-maximal response (EC50) is 107 µg/mL and 390 µM in series [4] (setting [12]); 131 µg/mL and 470 µM in series [4] (setting [13]).

In the case of `CC(=NOCCN(C)C)c1ccccc1` [Compound 23], the EC50 in series [1] (setting [6]) was 233 µg/mL and 1.13 mM.

As for `CC(=NOCc1ccc(Cl)cc1Cl)c1cc2ccccc2o1` [Compound 1], in series [1] (setting [6]), the EC50 was > 250 µg/mL and > 750 µM.
